Laboratory results taken from PubChem BioAssay AID1996.
In brackets after ≈: the same amount, converted by molar mass.

Conditions: buffer; pH 7.4; 200.0 µM

Compound | solubility kinetic
CCC(=O)Nc1cc2c3c(c1)CCN3C(=O)CC2 | 35.3 µg/mL (≈ 144 µM)
CC1CCC(NC(=O)CN2C(=O)NC(C)(C)C2=O)CC1 (stereo not given) | > 42.2 µg/mL
O=S(=O)(Nc1cccnc1Cl)c1ccc(-c2ccccc2)cc1 | 47.7 µg/mL (≈ 138 µM)
COc1ccc(C2(O)C(=O)Nc3ccccc32)cc1 (stereo not given) | > 38.3 µg/mL
O=C(O)CCC(=O)N(Cc1ccco1)C1CC(=O)N(c2ccccc2)C1=O (stereo not given) | > 55.6 µg/mL
NC1=NC(=O)/C(=C/c2ccc(Cl)cc2Cl)S1 | 1.3 µg/mL (≈ 4.76 µM)
O=C(CNC(=O)c1ccncc1)N/N=C/c1ccc(Br)cc1 | > 54.2 µg/mL
Cc1nnc(SCC(=O)N(C)CC(=O)Nc2ccccc2Cl)s1 | > 55.6 µg/mL
O=C(Nc1nccs1)c1cc(Cl)nc2ccccc12 | 5.2 µg/mL (≈ 17.9 µM)
CC(NC(=O)COC(=O)C1CC1C)c1cccc(Cl)c1 (stereo not given) | > 44.4 µg/mL
Cc1cccnc1NC(=O)CCC(=O)c1cccs1 | > 41.2 µg/mL
CCC(=O)c1cn(CC(=O)Nc2ccc(C)cc2)c2ccccc12 | < 0.3 µg/mL
CC(=O)N1C(=O)NC2=C(C(=O)CCC2)C1c1cccc([N+](=O)[O-])c1 (stereo not given) | > 49.4 µg/mL
CC(=O)c1sc2nsc(SCCN3CCCCC3)c2c1N | 47.5 µg/mL (≈ 139 µM)
COc1ccc(C(C)NC(=S)NCc2ccc(F)cc2)cc1 (stereo not given) | 4.4 µg/mL (≈ 13.8 µM)
O=C1S/C(=C\c2cccs2)C(=O)N1c1ccc(O)cc1 | < 0.6 µg/mL
COc1ccc(CC(=O)OCC(=O)NC2CCCC(C)C2C)cc1 (stereo not given) | > 50 µg/mL
COC(=O)/C(C#N)=C/c1c(N2CCN(C)CC2)nc2ccccn2c1=O | > 53 µg/mL
N#CCCN(Cc1ccccc1)C(=O)c1cccs1 | > 40.6 µg/mL
O=C(NC1(C(F)(F)F)NC(=O)N(C2CCCCC2)C1=O)c1ccco1 (stereo not given) | 50.2 µg/mL (≈ 140 µM)
CCN(CC(=O)NCc1cccs1)C(=O)c1cccc(S(=O)(=O)N(C)C)c1 | > 61.4 µg/mL
COC(=O)c1cc(S(=O)(=O)N2CCCC2)c(Cl)cc1Cl | 41.8 µg/mL (≈ 124 µM)

Compound | solubility kinetic
COC(=O)CCCNC(=O)c1ccc2[nH]c(C)c(C)c2c1 | > 43.3 µg/mL
COc1cccc(S(=O)(=O)Nc2cccc(C(=O)N3CCCC3)c2)c1 | 47.9 µg/mL (≈ 133 µM)
CCC1CCCCN1CC(O)COCc1cccc(OC)c1 (stereo not given) | 31.4 µg/mL (≈ 102 µM)
COC(=O)C1CCN(Cc2nnc(-c3ccccc3)o2)CC1 | > 45.2 µg/mL
CCC(CC)NC(=O)c1cccc(Oc2ccccc2)c1 | 5.2 µg/mL (≈ 18.4 µM)
COc1cc2c(cc1/C=C/[N+](=O)[O-])OCO2 | 6.5 µg/mL (≈ 29.1 µM)
O=S(=O)(Nc1nc2ccccc2nc1NCC1CCCO1)c1ccccc1 (stereo not given) | > 57.7 µg/mL
CCOC(=O)Cc1csc(NC(=O)CSc2nc(C)cc(C)n2)n1 | > 55 µg/mL
Cc1cc(NC(=O)CSc2nc3ccccc3n2CCC#N)no1 | 7.7 µg/mL (≈ 22.6 µM)
CCc1cccc2c(C(=O)COC(=O)[C@@H]3CC(O)CN3S(=O)(=O)c3ccccc3[N+](=O)[O-])c[nH]c12 (stereo not given in full) | 30.6 µg/mL (≈ 61 µM)
COc1ccc(N(CC(=O)Nc2cccnc2)S(C)(=O)=O)cc1 | > 50.3 µg/mL
O=C(COC(=O)c1ccncc1)c1ccccc1 | > 36.2 µg/mL
COCCN=C(NS(=O)(=O)c1cccs1)c1ccccc1Cl | > 53.8 µg/mL
O=C(Nc1ccc2c(c1)OCCO2)c1cc(F)c(F)cc1Cl | 2.8 µg/mL (≈ 8.6 µM)
Cc1ccc(-c2cc(C(=O)NC3CCCCC3)no2)cc1 | < 0.3 µg/mL
CC(C)NC(=O)c1ccccc1NC(=O)Cc1ccc([N+](=O)[O-])cc1 | 19.1 µg/mL (≈ 56 µM)
Fc1ccccc1C1CCN(Cc2nc(COc3ccccc3)no2)C1 (stereo not given) | 12.7 µg/mL (≈ 35.9 µM)
CC(C)OCCCNC(=O)C1CC(=O)N(CCc2ccccc2)C1 (stereo not given) | 48.9 µg/mL (≈ 147 µM)
Cl.c1ccc2c(c1)CCCC2C1=NCCN1 (stereo not given) | > 35.5 µg/mL
NC(=O)COc1cc2oc(=O)c3c(c2cc1Cl)CCCC3 | 7.1 µg/mL (≈ 23.1 µM)
CN(CC(=O)Nc1ccc(F)cc1[N+](=O)[O-])Cc1ccccc1 | 1 µg/mL (≈ 3.15 µM)
CC1CN(CC(=O)NCc2ccccc2)CC(C)O1 (stereo not given) | 36.1 µg/mL (≈ 138 µM)

Compound | solubility kinetic
Cc1ccc(OCCC(=O)OCC(=O)Nc2cc(C)cc(C)c2)cc1 | 4.3 µg/mL (≈ 12.6 µM)
COc1cc(OC)c(NC(=O)Cc2cccs2)cc1Cl | 32.1 µg/mL (≈ 103 µM)
O=C(Nc1ccc(Cl)cc1)Nc1ccc(-c2cnco2)cc1 | 0.7 µg/mL (≈ 2.23 µM)
CCOC(=O)c1ccc(NC(=O)C2CC3CCC2C3)cc1 (stereo not given) | 22.2 µg/mL (≈ 77.3 µM)
CN1c2ccccc2Sc2cc(N)ccc21 | 25.6 µg/mL (≈ 112 µM)
COC(=O)c1sccc1S(=O)(=O)Nc1ccc(C)cc1 | 5 µg/mL (≈ 16.1 µM)
Cc1ccc(CNC(=O)C2CSC3(C)CCC(=O)N23)cc1 (stereo not given) | > 45.7 µg/mL
CCOc1ccc(-n2ccnc(SCC(=O)NC3CCCC3)c2=O)cc1 | 32.6 µg/mL (≈ 87.3 µM)
CC(C(=O)NC(c1ccccc1)c1ccccc1)N1CCOCC1 (stereo not given) | 44.9 µg/mL (≈ 138 µM)
COC(=O)c1sccc1NC(=O)Nc1cc(C)cc(C)c1 | 2.7 µg/mL (≈ 8.87 µM)
Cc1cc(/C=C2/C(=O)NC(=O)N(c3ccc(Br)cc3)C2=O)c(C)n1C | 5.3 µg/mL (≈ 13.2 µM)
Nc1cc(Oc2ccc(Cl)cc2Cl)nc(N)n1 | 39.5 µg/mL (≈ 146 µM)
C=CCn1c(SCC(=O)N2CCOCC2)nc2sc(CC)cc2c1=O | > 56.9 µg/mL
COc1cccc2[nH]c(C(=O)NCCc3ccccc3)cc12 | 1 µg/mL (≈ 3.4 µM)
CCOC(=O)C1CCCN(C(=O)c2ccc3ncsc3c2)C1 (stereo not given) | > 47.8 µg/mL
Cc1cc(C)c(C)c(S(=O)(=O)N2CCN(C(=O)c3ccco3)CC2)c1C | 4.1 µg/mL (≈ 10.9 µM)
O=C(/C=C/c1cccnc1)c1ccc([N+](=O)[O-])cc1 | 9.8 µg/mL (≈ 38.5 µM)
CC(C)N(Cc1ccccc1)S(=O)(=O)c1ccc(F)cc1 | 12 µg/mL (≈ 39 µM)
CCCCCCCCCCCC(=O)N1CC(=O)NC(=O)C1 | 2.5 µg/mL (≈ 8.43 µM)
CCN(CC)c1nc(-c2ccccc2)nc2c1sc(=S)n2CC | < 0.2 µg/mL
N#Cc1cc(N2CCOCC2)nc2ccccc12 | 15.3 µg/mL (≈ 63.9 µM)
CN(C)C(CNC(=O)c1cc2ccccc2o1)c1ccco1 (stereo not given) | > 44.8 µg/mL

Compound | solubility kinetic
COc1ccc(-c2cc(C(=O)OCC(=O)NC3CC3)c3ccccc3n2)cc1OC | 10 µg/mL (≈ 24.6 µM)
CN1CN(C)c2ccc([N+](=O)[O-])c3cccc1c23 | 2.1 µg/mL (≈ 8.63 µM)
O=C(Nc1sc2c(c1C(=O)O)CCCC2)c1cccc(Cl)c1 | 45.5 µg/mL (≈ 135 µM)
Cc1ccc(Nc2nc(N)c3ccccc3n2)cc1Cl.Cl | 22.1 µg/mL
CCCNC(=O)CN1C(=O)c2ccccc2Sc2ncccc21 | > 49.1 µg/mL
CC(C)n1c(CN(C)Cc2ccccc2)nc2c1c(=O)n(C)c(=O)n2C | 23.8 µg/mL (≈ 67 µM)
CCOC(=O)c1c(C)[nH]c(C(=O)C(C)N2CCCC2)c1C (stereo not given) | 37 µg/mL (≈ 127 µM)
CC(C)CNS(=O)(=O)c1cc(C(=O)O)c(Cl)cc1Cl | > 48.9 µg/mL
Cc1nc2cc(NCc3cccs3)ccc2n1C | 31.9 µg/mL (≈ 124 µM)
CN(C)CCCNC(=O)c1cc(C(=O)Cc2ccccc2)c[nH]1 | > 47 µg/mL
COc1ccc(OCC(=O)NCCCCCCNC(=O)COc2ccc(OC)cc2)cc1 | 2.6 µg/mL (≈ 5.85 µM)
Clc1ccc(-c2nc(C3CCCCC3)no2)cc1 | < 0.3 µg/mL
O=C(O)CN1C(=O)S/C(=C\c2cccnc2)C1=O | > 39.6 µg/mL
O/N=C/c1nc2cc(Cl)ccc2o1 | > 29.5 µg/mL
OC(COc1ccc(Br)cc1)Cn1ccnc1 (stereo not given) | 36.3 µg/mL (≈ 122 µM)
COC(=O)c1cccc(NC(=O)Cc2ccsc2)c1 | > 41.3 µg/mL
Cc1cc(=O)[nH]c2sc(C(=O)N3c4ccccc4CC3C)c(N)c12 (stereo not given) | > 50.9 µg/mL
CC(C)C(NC(=O)c1ccc(F)cc1)C(=O)N1CCC1 (stereo not given) | > 41.7 µg/mL
CC1CC(=O)C2=C(C1)Nc1nc3ccccc3n1C2c1cccnc1 (stereo not given) | 3.3 µg/mL (≈ 9.99 µM)
